Read-outs that look alike come from different tables or passages of the source.

The nature of this data set: Skin-Pampa assay. It counts as in vitro ADME. As to conditions: for Multiplicity (relative to the prototype drug): Skin-Pampa Pe of prodrug relative to its prototype drug. The method, then:
• 1. Hydrate the Skin-Pampa membrane with hydration solution overnight. • 2. Dissolve each compound to be tested in DMSO and prepare 0.5 mL 20 mM solutions of the test compounds. Take 50 uL of solutions of the test compounds to the corresponding 5 mL of donor solution and mix well. • 3. Add 200 μL of the sample solution to the donor (bottom) plate and add 200 μL of acceptor solution into the wells of the acceptor (TOP) plate, and 12 wells are incubated in parallel for each sample. • 4. After 7 hours of incubation, 100 μL of the sample in each of the donor plate and 100 μL of the sample in each of the acceptor plate were sampled and then added with 200 μL of dilution (50% acetonitrile aqueous solution), mixed by vortexing and centrifuged, 200 μL of the supernatant was used for HPLC content detection. • 5. The Skin-Pampa parameters are calculated according to the following equation
[formula] [formula] • Pe—effective permeability coefficient; • VA— the volume of acceptor well (ml); • VD— the volume of donorwell (ml); • A—the filtration area (cm^2); • t—the incubation time (s); • tLAG—the steady-state time (s); • CD(t)—the concentration of the compound in donorwell at t; • CA(t)—the concentration of the compound in acceptor well at t; • CD(0)—the concentration at the compound in donorwell at 0.

The mark [1] stands for this setting: Skin-Pampa, 7 hours of incubation, 12 wells in parallel, HPLC detection.
The mark [2] stands for this setting: Skin-Pampa, 7 hours of incubation, 12 wells in parallel, HPLC detection, read-out: Pe (effective permeability coefficient).

In the case of `CC[C@@H]1CN(C(=O)NCC(F)(F)F)C[C@@H]1c1cnc2cnc3[nH]ccc3n12` [Upadacitinib, reference compound], under setting [1], the LogPe is −6.96 ± 0.20. Further, under setting [2], the Papp at 7 h, 200 µM worked out at 0.11 ± 0.05 ×10⁻⁶ cm/s.

`NC(=O)c1cnc2[nH]ccc2c1N[C@@H]1[C@@H]2CC3C[C@H]1C[C@@](O)(C3)C2` [Peficitinib, reference compound] came in with a LogPe under setting [1] of −7.06 ± 0.33. Also, the Papp at 7 h, 200 µM under setting [2] came out at 0.11 ± 0.06 ×10⁻⁶ cm/s.

For `CCCCCCCCCC(=O)OCn1ccc2c(N(C)[C@H]3CN(C(=O)CC#N)CC[C@H]3C)ncnc21` [Example 8], the “Multiplicity (relative to the prototype drug)” value was 5.29-7.67. The molecule further displayed a LogPe under setting [1] of −5.66 ± 0.08. Besides, the Papp at 7 h, 200 µM under setting [2] was 2.19 ± 0.35 ×10⁻⁶ cm/s.

Consider `CCCCC(CC)CCC(=O)OCn1ccc2c1ncc1ncc([C@H]3CN(C(=O)NCC(F)(F)F)C[C@H]3CC)n12` (stereo partly shown) [Example 14], for which the “Multiplicity (relative to the prototype drug)” value is reported as 6.81-8.83. Also, the LogPe under setting [1] is −6.09 ± 0.19. For the same molecule, under setting [2], the Papp at 7 h, 200 µM stood at 0.81 ± 0.28 ×10⁻⁶ cm/s.

In turn, `C[C@@H]1CCN(C(=O)CC#N)C[C@@H]1N(C)c1ncnc2[nH]ccc12` [Tofacitinib, reference compound] came in with a LogPe under setting [1] of −6.45 ± 0.14. Besides, the Papp at 7 h, 200 µM under setting [2] amounted to 0.36 ± 0.12 ×10⁻⁶ cm/s.

On to `CCCCCCCCC(=O)OCn1ccc2c(N(C)[C@H]3CN(C(=O)CC#N)CC[C@H]3C)ncnc21` [Example 7], for which the “Multiplicity (relative to the prototype drug)” value was 7.38-10.08. The molecule also returned a LogPe under setting [1] of −5.53 ± 0.08. For the same molecule, the Papp at 7 h, 200 µM under setting [2] came to 2.98 ± 0.56 ×10⁻⁶ cm/s.

Under setting [1], `CN1C(C(=O)Nc2ccccn2)=C(O)c2ccccc2S1(=O)=O` [Piroxicam, reference compound] registered a LogPe of −5.73 ± 0.06. Under setting [2], the Papp at 7 h, 200 µM was determined as 1.84 ± 0.24 ×10⁻⁶ cm/s.

Take `CCCCC(CC)CCC(=O)OCn1ccc2c(-c3cnn(C4(CC#N)CN(C5CCN(C(=O)c6ccnc(C(F)(F)F)c6F)CC5)C4)c3)ncnc21` (stereo not shown) [Example 15]: the “Multiplicity (relative to the prototype drug)” value is 5.8-19.5. In addition, the LogPe under setting [1] is −5.90 ± 0.20. For the same molecule, under setting [2], the Papp at 7 h, 200 µM turned out to be 1.26 ± 0.48 ×10⁻⁶ cm/s.

With `CCCCCCCCCCCC(=O)OCn1ccc2c(N(C)[C@H]3CN(C(=O)CC#N)CC[C@H]3C)ncnc21` [Example 5], the “Multiplicity (relative to the prototype drug)” value was 6.88-8.15. Also, the LogPe under setting [1] was −5.56 ± 0.16. Besides, the Papp at 7 h, 200 µM under setting [2] came to 2.78 ± 1.13 ×10⁻⁶ cm/s.

For the molecule `CCCCC(CC)CCC(=O)OCn1ccc2c(NC3C4CC5CC3CC(O)(C5)C4)c(C(N)=O)cnc21` (stereo not shown) [Example 13], the “Multiplicity (relative to the prototype drug)” value was 8.59-15.6. This molecule also registered a LogPe under setting [1] of −6.01 ± 0.19. In addition, under setting [2], the Papp at 7 h, 200 µM was determined as 1.07 ± 0.39 ×10⁻⁶ cm/s.

On to `CCCCC(CC)CCC(=O)OCn1ccc2c(N(C)[C@H]3CN(C(=O)CC#N)CC[C@H]3C)ncnc21` (stereo partly shown) [Example 4], for which the “Multiplicity (relative to the prototype drug)” value is 8.25-8.92. The same molecule gave a LogPe under setting [1] of −5.50 ± 0.17. Besides, the Papp at 7 h, 200 µM under setting [2] was 3.13 ± 1.15 ×10⁻⁶ cm/s.

Consider `CCCCCCCC(=O)OCn1ccc2c(N(C)[C@H]3CN(C(=O)CC#N)CC[C@H]3C)ncnc21` [Example 1], for which the “Multiplicity (relative to the prototype drug)” value is 4.31-4.46. This molecule also yielded a Papp at 7 h, 200 µM (PAMPA) of 1.57 ± 0.5 ×10⁻⁶ cm/s. Besides, the LogPe (PAMPA, 7 h, 200 µM) is listed as −5.80 ± 0.11.

The molecule `N#CCC1(n2cc(-c3ncnc4[nH]ccc34)cn2)CN(C2CCN(C(=O)c3ccnc(C(F)(F)F)c3F)CC2)C1` [Itacitinib, reference compound] yielded a LogPe under setting [1] of −6.88 ± 0.34. Moreover, the Papp at 7 h, 200 µM under setting [2] was 0.13 ± 0.17 ×10⁻⁶ cm/s.
